Patent US8912162B2, “Parenteral formulations of elacytarabine derivatives” (Clavis Pharma ASA, priority 2010, dated 2014)

Key:
[1] = Solubility of elacytarabine in water, phosphate buffer and soybean oil based emulsions; format: physicochemical
Source text: Nevertheless, formulation of a therapeutically effective amount of the poorly soluble derivatives of formula (I) into a pharmaceutical composition suitable for parenteral administration represents a problem. For the sake of intravenous administration of the said derivatives, the composition of the excipients should be selected so that the said derivatives are solubilised. The cytarabine derivatives of formula (I) are amphiphilic and have poor solubility both in water and in oils. This limits the choice of potential excipients that can solubilise them.

[2] = Plasma concentration of elacytarabine, Ara-C and Ara-U in patients (FIG. 2); format: in vivo; details: average values for 61 patients
Source text: FIG. 2: Plasma concentration of elacytarabine, Ara-C and Ara-U (deamination metabolite of Ara-C), average values for 61 patients.

[3] = system: acute myeloid leukemia (AML); experiment: Phase II study of single agent elacytarabine as second salvage therapy; format: in vivo, patients
Description: The formulation described in example 1 was administered to 61 patients in a phase II study of single agent elacytarabine as second salvage therapy for acute myeloid leukemia (AML). […] The response rate was 15%. The median overall survival was 5.3 months versus 1.5 months in the historical control. The median survival for the responders was 13.5 months. The 6 month survival rate was 44%.

[4] = system: MDR resistant cells (A549); details: A549, found earlier; cited from earlier work
[5] = system: Cis-platin resistant cells (NHIK 3025/DDP); details: found earlier; cited from earlier work

solubility ([1]; aqueous buffer, phosphate buffer pH 7.4 at 25° C.): < 1 µg/mL
solubility ([1]; deionised water, 25 °C, water): < 0.1 µg/mL
dissolution in soybean oil based emulsions ([1]; earlier formulation studies): did not dissolve appropriately
exposure to elacytarabine compared to cytarabine (Ara-C) [2]: ≥ 10 fold
SMILES: CCCCCCCC/C=C/CCCCCCCC(=O)OC[C@H]1O[C@@H](n2ccc(N)nc2=O)[C@@H](O)[C@@H]1O [elacytarabine, 5′-O-(trans-9″-octadecenoyl)-1-β-D-arabinofuranosylcytosine]
tolerability ([3]; also by elderly patients): well tolerated
side effects ([3]; phase II AML patients): predictable and manageable
effect against resistant cells compared with corresponding non-resistant cell line [4]: same effect
effect against resistant cells compared with corresponding non-resistant cell line [5]: same effect
